In patent US11873287B2, “Piperidine-2,6-dione derivatives and ulcerative colitis treating” (TIANJIN HEMAY PHARMACEUTICAL SCI-TECH CO., LTD, priority 2016, dated 2024):
Entries after “also recorded” stand apart in the source; their conditions may differ.

Assays:
[1] = system: DSS-Induced inflammatory Bowel Disease Models in Mice; assay: DSS-induced inflammatory bowel disease model in mice (Biological Example 2, 0.9% DSS); type: in vivo, C57BL/6 mice; details: for colon length (Mean ± SD): 0.9% DSS 5 days, end of experiment; for body weights during the whole experiment compared with model control group: 0.9% DSS
Procedure: 66 female C57BL/6 mice were randomly divided into 6 groups: normal control group, model control group, cyclosporine A (25 mg/Kg), 5-ASA (100 mg/Kg), the compound in Example 27 (30 mg/Kg) and the compound in Example 26 (30 mg/Kg). There were 11 mice in each group (see Table 4 below). Besides the normal control group, the remaining groups were induced with 0.9% DSS for 5 days. The day of induction was the first day of the test and then normal drinking water was administered for 4 days. The normal control group was administered with normal drinking water all the time. The model control group, 5-ASA group, the compound in Example 27 group and the compound in Example 26 group were administered with 1% CMC-Na or the corresponding drug every day from the first day of the experiment to the end of the experiment. The cyclosporine A group was administered with cyclosporine A every day from the first day of experiment to the fifth day of the experiment and was administered with the corresponding volume of 1% CMC-Na every day from the sixth day to the end of the experiment due to toxicity. The normal control group was administered with the corresponding volume of 1% CMC-Na every day. The animals were treated and the indexes were tested at the end of the experiment.
The compound in Example 27, the compound in Example 26, 5-ASA or Cyclosporine A: Preparation Method: Suspended with 1% CMC-Na, and prepared when it was needed.
One-Way Anova test was performed with SPSS 17.0. The colony length was analyzed statistically between groups.

[2] = system: DSS-Induced inflammatory Bowel Disease Models in Mice; assay: DSS-induced inflammatory bowel disease model in mice (Biological Example 5, 1.3% DSS); type: in vivo, C57BL/6 mice; details: 30 mg/Kg i.g. Q.D, 1.3% DSS days 0-5; for inhibition in vivo at 30 mg/kg: Mus musculus, po, read-out: Inhibitory Rate of Colonic Reduction
Procedure: 40 healthy female C57BL/6 mice having weight of 16-19 g were randomly divided into 4 groups in accordance with weight. There were 10 mice in each group (see Table 6 below). The first day of the experiment was recorded as Day 0. The administration regimen and induction regimen were detailed in Table 6. The change in weight of experimental animals was recorded every day. […] Samples of animal colonic tissues were obtained to measure the length. One-way ANOVA analysis of mice weights was performed by SPSS22. Statistical analyses between groups were performed. Mann-Whitney U non-parametric test was performed on the length of colon.
The experimental method used in the present biological example is identical to those in Biological Example 3.
One-way ANOVA analysis of mice body weights and colonic weights per length was performed by SPSS22. Statistical analyses between groups were performed.
Calculation Formula of Inhibitory Rate of Colonic Reduction: (Length of Colon in Administration Group−Length of Colon in Model Group)/(Length of Colon in Blank Group−Length of Colon in Model Group)

ICR mice = assay: Acute toxicity experiment of single oral administration in mice; type: in vivo; details: 1000 mg/Kg single oral dose
Outline: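 Fasted ICR mice (19–21 g, 3 male and 3 female per group) received a single oral dose of 1000 mg/Kg, given first to one of each sex, then to the remaining four. Acute signs were scored over the first 15 min, then state, deaths and daily body weight over 7 days.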

[3] = system: DSS-Induced Inflammatory Bowel Disease Models in Mice; assay: DSS-induced inflammatory bowel disease model in mice (Biological Example 1, 1.6% DSS); type: in vivo, C57BL/6J mice; details: for colon length (Mean ± SD): 1.6% DSS 8 days, end of experiment
Procedure: Experimental animals: C57BL/6J mice, weight of 16-18 g
Piperidine-2,6-dione derivatives, 5-ASA or Cyclosporine A: Preparation Method: Suspended with 1% CMC-Na, and prepared when it was needed.
54 C57BL/6 mice were randomly divided into 6 groups: normal control group, model control group, Example 27 groups consisting of dose of 5 mg/Kg group, dose of 10 mg/Kg group and dose of 20 mg/Kg group, and cyclosporine A-25 mg/Kg group. There were 9 mice in each group (see Table 2 below). Besides the normal control group, the remaining groups were induced with 1.6% DSS for 8 days. Normal drinking water was then administered for 3 days. The normal control group was administered with normal drinking water all the time. The model control group and the compound in Example 27 group were administered with 1% CMC-Na or the corresponding drug every day until the end of the experiment. The cyclosporine A group was administered with the corresponding drug every day from the first day of experiment to the eighth day of the experiment and was administered with the corresponding volume of 1% CMC-Na every day from the ninth day to the end of the experiment due to toxicity. At the end of the experiment, the animals were treated and the indexes such as the colon length were tested.
The homogeneity of data variance test was performed by Spss13.0. Where the variance of data was homogeneous (P>0.05), one-way ANOVA LSD test was performed. Where the variance was inhomogeneous (P≤0.05), the data were treated with extraction of a root and homogeneity of data variance test was further performed. Where the variance of data was homogeneous (P>0.05), one-way ANOVA LSD test was performed. Where the variance was still inhomogeneous (P≤0.05), then Dunnett's multiple comparison (parameter method) was performed.

## Nc1ccc(O)c(C(=O)O)c1 [Example 5-ASA, 5-aminosalicylic acid, reference compound]
[1]; 100 mg/Kg i.g. Q.D
  colon length (Mean ± SD): 6.1 ± 0.4 cm

## COCCCCN1C(=O)CCC(N2C(=O)c3cccc(N)c3C2=O)C1=O (stereo not shown) [Example 22, 4-amino-2-(1-(4-methoxybutyl)-2,6-dioxopiperidin-3-yl)isoindolin-1,3-dione]
[2]
  Length (cm, Mean ± SD) of colon: 6.9 ± 0.4 cm
  inhibition in vivo at 30 mg/kg: 100%
ICR mice; Day 1
  Daily Body Weight of Tested Female Mice (Mean ± SD): 18.5 ± 0.6 g
  Daily Body Weight of Tested Male Mice (Mean ± SD): 17.1 ± 0.3 g
ICR mice; Day 2
  Daily Body Weight of Tested Female Mice (Mean ± SD): 21.8 ± 0.3 g
  Daily Body Weight of Tested Male Mice (Mean ± SD): 22.9 ± 0.8 g
ICR mice; Day 3
  Daily Body Weight of Tested Female Mice (Mean ± SD): 22.9 ± 0.4 g
  Daily Body Weight of Tested Male Mice (Mean ± SD): 23.5 ± 0.9 g
ICR mice; Day 4
  Daily Body Weight of Tested Female Mice (Mean ± SD): 24.0 ± 1.0 g
  Daily Body Weight of Tested Male Mice (Mean ± SD): 25.2 ± 0.5 g
ICR mice; Day 5
  Daily Body Weight of Tested Female Mice (Mean ± SD): 25.0 ± 0.4 g
  Daily Body Weight of Tested Male Mice (Mean ± SD): 27.2 ± 1.9 g
ICR mice; Day 6
  Daily Body Weight of Tested Female Mice (Mean ± SD): 25.3 ± 0.6 g
  Daily Body Weight of Tested Male Mice (Mean ± SD): 27.1 ± 1.8 g
ICR mice; Day 7
  Daily Body Weight of Tested Female Mice (Mean ± SD): 25.6 ± 0.2 g
  Daily Body Weight of Tested Male Mice (Mean ± SD): 27.4 ± 1.9 g

## COCCN1C(=O)CCC(N2C(=O)c3cccc(O)c3C2=O)C1=O (stereo not shown) [Example 23, 4-hydroxy-2-(1-(2-methoxyethyl)-2,6-dioxopiperidin-3-yl)isoindolin-1,3-dione]
[2]
  Length (cm, Mean ± SD) of colon: 6.9 ± 0.5 cm
  inhibition in vivo at 30 mg/kg: 100%
ICR mice; Day 1
  Daily Body Weight of Tested Female Mice (Mean ± SD): 19.1 ± 0.6 g
  Daily Body Weight of Tested Male Mice (Mean ± SD): 19.4 ± 0.8 g
ICR mice; Day 2
  Daily Body Weight of Tested Female Mice (Mean ± SD): 22.4 ± 0.4 g
  Daily Body Weight of Tested Male Mice (Mean ± SD): 24.6 ± 1.2 g
ICR mice; Day 3
  Daily Body Weight of Tested Female Mice (Mean ± SD): 23.0 ± 0.1 g
  Daily Body Weight of Tested Male Mice (Mean ± SD): 24.5 ± 0.6 g
ICR mice; Day 4
  Daily Body Weight of Tested Female Mice (Mean ± SD): 23.0 ± 0.1 g
  Daily Body Weight of Tested Male Mice (Mean ± SD): 24.5 ± 0.6 g
ICR mice; Day 5
  Daily Body Weight of Tested Female Mice (Mean ± SD): 24.6 ± 0.4 g
  Daily Body Weight of Tested Male Mice (Mean ± SD): 25.4 ± 1.2 g
ICR mice; Day 6
  Daily Body Weight of Tested Female Mice (Mean ± SD): 24.8 ± 0.7 g
  Daily Body Weight of Tested Male Mice (Mean ± SD): 28.1 ± 0.8 g
ICR mice; Day 7
  Daily Body Weight of Tested Female Mice (Mean ± SD): 24.6 ± 0.4 g
  Daily Body Weight of Tested Male Mice (Mean ± SD): 29.0 ± 0.8 g
ICR mice; Female
  Summary of toxic response of tested animals in 7 Days: Abnormality was not observed in 7 days of the test
ICR mice; Male
  Summary of toxic response of tested animals in 7 Days: Abnormality was not observed in 7 days of the test

## COCCN1C(=O)CCC(N2C(=O)c3cccc(C)c3C2=O)C1=O (stereo not shown) [Example 24, 4-methyl-2-(1-(2-methoxyethyl)-2,6-dioxopiperidin-3-yl)-isoindolin-1,3-dione]
[2]
  Length (cm, Mean ± SD) of colon: 6.7 ± 0.6 cm
  inhibition in vivo at 30 mg/kg: 81.8%
ICR mice; Day 1
  Daily Body Weight of Tested Female Mice (Mean ± SD): 18.4 ± 0.7 g
  Daily Body Weight of Tested Male Mice (Mean ± SD): 17.7 ± 0.2 g
ICR mice; Day 2
  Daily Body Weight of Tested Female Mice (Mean ± SD): 22.4 ± 1.0 g
  Daily Body Weight of Tested Male Mice (Mean ± SD): 22.3 ± 0.7 g
ICR mice; Day 3
  Daily Body Weight of Tested Female Mice (Mean ± SD): 23.4 ± 1.0 g
  Daily Body Weight of Tested Male Mice (Mean ± SD): 24.5 ± 1.0 g
ICR mice; Day 4
  Daily Body Weight of Tested Female Mice (Mean ± SD): 23.6 ± 0.9 g
  Daily Body Weight of Tested Male Mice (Mean ± SD): 25.2 ± 1.0 g
ICR mice; Day 5
  Daily Body Weight of Tested Female Mice (Mean ± SD): 24.3 ± 0.6 g
  Daily Body Weight of Tested Male Mice (Mean ± SD): 27.2 ± 1.3 g
ICR mice; Day 6
  Daily Body Weight of Tested Female Mice (Mean ± SD): 24.7 ± 0.6 g
  Daily Body Weight of Tested Male Mice (Mean ± SD): 28.1 ± 2.0 g
ICR mice; Day 7
  Daily Body Weight of Tested Female Mice (Mean ± SD): 24.8 ± 1.5 g
  Daily Body Weight of Tested Male Mice (Mean ± SD): 28.9 ± 1.9 g

## COCCCN1C(=O)CCC(N2C(=O)c3cccc(N)c3C2=O)C1=O (stereo not shown) [Example 26, 4-amino-2-(1-(3-methoxypropyl)-2,6-dioxopiperidin-3-yl)isoindolin-1,3-dione]
[1]; 30 mg/Kg i.g. Q.D
  body weights during the whole experiment compared with model control group: higher than that of the model control group
  colon length (Mean ± SD): 6.3 ± 0.5 cm
ICR mice; Day 1
  Daily Body Weight of Tested Female Mice (Mean ± SD): 18.0 ± 0.7 g
  Daily Body Weight of Tested Male Mice (Mean ± SD): 18.7 ± 0.8 g
ICR mice; Day 2
  Daily Body Weight of Tested Female Mice (Mean ± SD): 21.9 ± 0.3 g
  Daily Body Weight of Tested Male Mice (Mean ± SD): 23.4 ± 0.5 g
ICR mice; Day 3
  Daily Body Weight of Tested Female Mice (Mean ± SD): 22.1 ± 0.5 g
  Daily Body Weight of Tested Male Mice (Mean ± SD): 25.0 ± 0.6 g
ICR mice; Day 4
  Daily Body Weight of Tested Female Mice (Mean ± SD): 22.4 ± 0.2 g
  Daily Body Weight of Tested Male Mice (Mean ± SD): 26.6 ± 1.4 g
ICR mice; Day 5
  Daily Body Weight of Tested Female Mice (Mean ± SD): 22.7 ± 0.3 g
  Daily Body Weight of Tested Male Mice (Mean ± SD): 27.3 ± 1.3 g
ICR mice; Day 6
  Daily Body Weight of Tested Female Mice (Mean ± SD): 22.6 ± 0.3 g
  Daily Body Weight of Tested Male Mice (Mean ± SD): 28.3 ± 1.3 g
ICR mice; Day 7
  Daily Body Weight of Tested Female Mice (Mean ± SD): 22.4 ± 0.2 g
  Daily Body Weight of Tested Male Mice (Mean ± SD): 28.8 ± 1.4 g
ICR mice; Female
  Summary of toxic response of tested animals in 7 Days: Abnormality was not observed in 7 days of the test
ICR mice; Male
  Summary of toxic response of tested animals in 7 Days: Abnormality was not observed in 7 days of the test

## COCCN1C(=O)CCC(N2C(=O)c3cccc(N)c3C2=O)C1=O (stereo not shown) [Example 27, 4-amino-2-(1-(2-methoxyethyl)-2,6-dioxopiperidin-3-yl)isoindolin-1,3-dione]
[3]; 5 mg/Kg i.g. Q.D, 1.6% DSS
  Disease Activity Index (DAI): better than the DAI of model control group
  relief of reduction in colon length in the model: certain relief effects
[3]; 5 mg/Kg i.g. Q.D
  colon length (Mean ± SD): 6.1 ± 0.4 cm
[3]; 10 mg/Kg i.g. Q.D, 1.6% DSS
  Disease Activity Index (DAI): better than the DAI of model control group
[3]; 10 mg/Kg i.g. Q.D
  colon length (Mean ± SD): 6.2 ± 0.4 cm
[3]; 20 mg/Kg i.g. Q.D, 1.6% DSS
  Disease Activity Index (DAI): equivalent to the DAI of the normal control group and cyclosporine A group; also recorded: better than the DAI of model control group
  body weight of the animals during the experiment: continuous increase trend
  relief of reduction in colon length in the model: significant relief effects
[3]; 20 mg/Kg i.g. Q.D
  colon length (Mean ± SD): 6.4±0.4 cm
[1]; 30 mg/Kg i.g. Q.D
  body weights during the whole experiment compared with model control group: higher than that of the model control group
  colon length (Mean ± SD): 6.3 ± 0.5 cm
[2]
  Length (cm, Mean ± SD) of colon: 6.7 ± 0.4 cm
  inhibition in vivo at 30 mg/kg: 81.8%
